Source: ChEMBL document CHEMBL1136020, “Synthesis and biological evaluation of an N10-Psec substituted pyrrolo[2,1-c][1,4]benzodiazepine prodrug” (Bioorg Med Chem Lett, 2002)
Where “and” joins values, the source holds several entries; their conditions need not be identical. Equal values may be shown once. Calls of active or inactive are those of the source. No cut-off for these calls is given here.

Columns and labels:
NCI-H522 [1] = assay: Concentration required to restrict cell growth to 50% on continuous exposure for 48 hr in Lung ([…]) cell line; format: functional; settings: Homo sapiens, NCI-H522, 48 h
SNB-75 [2] = assay: Concentration required to decrease cell population by 50% on continuous exposure for 48 hr in CNS (SNB-75) cell line; format: functional; settings: Homo sapiens, SNB-75, 48 h; read-out: LC50 (the source's name)
CH1 [3] = assay: Tested for the cytotoxicity in CHIcisR ovarian cell line; format: functional, cell-based; settings: Homo sapiens, CH1cisR
SK-MEL-5 [4] = assay: Concentration required to restrict cell growth to 50% on continuous exposure for 48 hr in Melanoma (SK-MEL-5) cell line; format: functional; settings: Homo sapiens, SK-MEL-5, 48 h
RXF 393 [5] = assay: Concentration required to restrict cell growth to 50% on continuous exposure for 48 hr in Renal (RXF 393) cell line; format: functional; settings: Homo sapiens, RXF 393, 48 h
NCI-H522 [6] = assay: Concentration required to decrease cell population by 50% on continuous exposure for 48 hr in Lung ([…]) cell line; format: functional; settings: Homo sapiens, NCI-H522, 48 h; read-out: LC50 (the source's name)
SNB-75 [7] = assay: Concentration required to restrict cell growth to 50% on continuous exposure for 48 hr in CNS (SNB-75) cell line; format: functional; settings: Homo sapiens, SNB-75, 48 h
RXF 393 [8] = assay: Concentration required to decrease cell population by 50% on continuous exposure for 48 hr in Renal (RXF 393) cell line; format: functional; settings: Homo sapiens, RXF 393, 48 h; read-out: LC50 (the source's name)
A2780 [9] = assay: Tested for the cytotoxicity in A2780 ovarian cell line; format: functional, cell-based; settings: Homo sapiens
MDA-MB-435 [10] = assay: Concentration required to restrict cell growth to 50% on continuous exposure for 48 hr in Breast (MDA-MB-435) cell line; format: functional; settings: Homo sapiens, MDA-MB-435, 48 h
CH1 [11] = assay: Tested for the cytotoxicity in CHI ovarian cell line; format: functional, cell-based; settings: Homo sapiens
MDA-MB-435 [12] = assay: Concentration required to decrease cell population by 50% on continuous exposure for 48 hr in Breast (MDA-MB-435) cell line; format: functional; settings: Homo sapiens, MDA-MB-435, 48 h; read-out: LC50 (the source's name)
SK-OV-3 = assay: Tested for the cytotoxicity in SKOV-3 ovarian cell line; format: functional, cell-based; settings: Homo sapiens
A2780 [13] = assay: Tested for the cytotoxicity in A2780cisR ovarian cell line (cisR denotes resistance to cisplatin); format: functional, cell-based; settings: Homo sapiens
COLO 205 [14] = assay: Concentration required to decrease cell population by 50% on continuous exposure for 48 hr in Colon (COLO 205) cell line C; format: functional; settings: Homo sapiens, COLO 205, 48 h; read-out: LC50 (the source's name)
SK-MEL-5 [15] = assay: Concentration required to decrease cell population by 50% on continuous exposure for 48 hr in Melanoma (SK-MEL-5) cell line; format: functional; settings: Homo sapiens, SK-MEL-5, 48 h; read-out: LC50 (the source's name)
COLO 205 [16] = assay: Concentration required to restrict cell growth to 50% on continuous exposure for 48 hr in Colon (CoIo 205) cell line; format: functional; settings: Homo sapiens, COLO 205, 48 h
[17] = Ratio of cytotoxicity of cisR/normal cell line; format: functional
[18] = Ratio of cytotoxicity of cisR/normal cell line; not active; format: functional

SMILES	GI50 (NCI-H522 [1])	CC50 (SNB-75 [2])	IC50 (CH1 [3])	GI50 (SK-MEL-5 [4])	GI50 (RXF 393 [5])	CC50 (NCI-H522 [6])	GI50 (SNB-75 [7])	CC50 (RXF 393 [8])	IC50 (A2780 [9])	GI50 (MDA-MB-435 [10])	IC50 (CH1 [11])	CC50 (MDA-MB-435 [12])	IC50 (SK-OV-3)	IC50 (A2780 [13])	CC50 (COLO 205 [14])	CC50 (SK-MEL-5 [15])	GI50 (COLO 205 [16])	Resistance factor [17]	Resistance factor [18]
COc1cc2c(cc1OC)N(C(=O)OCCS(=O)(=O)c1ccccc1)[C@@H](O)[C@@H]1CCCN1C2=O	110 nM	9 µM	470 nM	290 nM	240 nM	1380 nM	720 nM	2970 nM	480 nM	450 nM	400 nM	4.33 µM	560 nM	490 nM	710 nM	6.78 µM	190 nM	1 and 1.2	
COc1cc2c(cc1OC)N(C(=O)OCCSc1ccccc1)[C@@H](O)[C@@H]1CCCN1C2=O			> 25000 nM						> 25000 nM		> 25000 nM		> 25000 nM	> 25000 nM					inactive
COc1cc2c(cc1OC)C(=O)N1CCC[C@H]1C=N2			110 nM						64 nM		82 nM		1700 nM	155 nM				2.4 and 1.3	
